{"source": "BindingDB's records for doi:10.1016/j.ejmech.2019.111853", "about": "(Hangzhou Institute of Innovative Medicine, 2020)", "key": {"[1]": {"assay": "Inhibition of CXCR2-mediated chemotaxis in mouse BAF3 cells"}, "[2]": {"assay": "Antagonist activity at CXCR2 in human neutrophils assessed as reduction in GRO-alpha mediated chemotaxis"}}, "data": [{"smiles": "CC[C@@H](Nc1c(Nc2cccc(C(=O)N3CCN4CCC[C@H]4C3)c2O)c(=O)c1=O)c1ccc(C)o1", "values": [{"measurement": "IC50", "setting": "[1]", "value": 0.1, "unit": "nM"}]}, {"smiles": "COC(=O)CSc1ccc(C(=O)Nc2ccc(F)cc2)cn1", "note": "[[5-(4-Fluoro-phenylcarbamoyl)-pyridin-2-ylsulfanyl]-acetic acid methyl ester]", "values": [{"measurement": "IC50", "setting": "[2]", "value": 42, "unit": "nM"}]}]}
